Consider four compounds from US9789044B2, “Compounds and methods for repelling blood-feeding arthropods and deterring their landing and feeding” (SCOTTS CANADA LTD, priority 2008, dated 2017).

Structures are written as SMILES.

For test [1], the system named is Anopheles gambiae. Particulars: by itself or in combination with an adjuvant; cited from earlier work.
For test [2], the system named is mosquitoes. Conditions: in vivo; cited from earlier work.
Test [3] concerns Aedes aegypti. Particulars: by itself or in combination with an adjuvant; cited from earlier work.
In test [4] the test system is Culex quinquefasciatus. Particulars: by itself or in combination with an adjuvant; cited from earlier work.
Test [5] has as its system Aedes aegypti. Briefly: General bioassay: treated human forearm in cage with host-seeking female mosquitoes, complete protection time (modified WHO 1996 protocol). The class given is in vivo. Particulars: 10% formulation in mineral oil, 1.5 mg (total composition) per cm^2 on human forearm skin. The procedure: A black-eyed Liverpool strain of Aedes. aegypti was obtained from Dr. Carl Lowenberger, Simon Fraser University (SFU). Insects were reared under standardized conditions (60-70% relative humidity, 26-28° C., 14 h light:10 h dark photoperiod) in SFU's insectary. Neonate larvae that hatched in glass dishes of sterilized hypoxic water were transferred to trays of distilled water provisioned with Nutrafin® Basix Staple Food fish diet. Pupae were collected daily and separated by sex, and 15 females and 10 males were placed in a paper cup (7.5 cm diameter, 8.5 cm high) with a mesh lid. Emergent adults were fed a 10% (w/v) sucrose solution via braided cotton dental rolls. Arm-fed gravid females were offered water-containing paper cups, lined with paper-towel as an oviposition substrate. Candidate repellents and deterrents were bioassayed according to a modified protocol from the World Health Organization (1996). At least 1 hour prior to each bioassay, 75 host-seeking non blood-fed, nulliparous, 5- to 8-day-old female Aedes aegypti were placed into a wood-framed cage (26.5 cm on each side and 42.5 cm high) with a wooden floor, screened mesh sides and top, and a clear acrylic front fitted with a cotton stockinette sleeve (10 cm diameter). […] The time elapsed from experiment initiation to first bite was recorded as deterrent failure or complete protection time. […]

As for `C=CCSCCCCCCCCO` [8-allylsulfanyl-1-octanol], the “deterring biting, effectiveness relative to DEET” value in test [1], in test [3] and in test [4] was “more effective than DEET” each time. For the same compound, the repellency to mosquitoes entry in test [2] is on record as “repellent”. In addition, the “average duration of protection from bites by Aedes aegypti” value in test [5] (Experiments 1-6, 3-4 replicates) stood at 123 min.

`C=CCSCCCCCCC(C)O` (centres unmarked) [8-allylsulfanyloctan-2-ol]: in test [2], the repellency to mosquitoes result is listed as “repellent”.

With `C=CCSCCCCCCCCCO` [9-allylsulfanylnonan-1-ol], in test [2], the repellency to mosquitoes result is “repellent”.

For `C=CCSCCCCCCCC(=O)N(CC)CC` [(N,N)-diethyl-8-allylsulfanyl-octanamide], the “average duration of protection from bites by Aedes aegypti” value in test [5] (Experiment 7, 4 replicates) came out at 156 min.
